From patent publication US7696129B2, “Substituted aromatic amide derivative, intermediate thereof, agrohorticultural insecticide containing thereof and method for the use thereof” (Nihon Nohyaku Co., Ltd., priority 2001, dated 2010)

Key:
Type in all cases: in vivo
[1] = tested on: Diamond Back Moth (Plutella xylostella); test: Test Example 1: insecticidal effect on diamond back moth, immersion of Chinese cabbage seedling with eggs; settings: seedling with eggs immersed about 30 seconds, 25° C., six days after the immersion; for Test Example 1 (insecticidal effect, mortality criterion): 50 ppm
From the text: Insecticidal Effect on Diamond Back Moth (Plutella xylostella)
Adult diamond back moths were released and allowed to oviposit on a Chinese cabbage seedling. Two days after the release, the seedling having the eggs deposited thereon was immersed for about 30 seconds in a liquid chemical prepared by diluting a preparation containing each compound listed in Tables 4 to 9 as an active ingredient to adjust the concentration to 50 ppm. After air-dryness, it was allowed to stand in a room thermostatted at 25° C. Six days after the immersion, the hatched insects were counted. The mortality was calculated according to the following equation and the insecticidal effect was judged according to the criterion shown below. The test was carried out with triplicate groups of 10 insects.

[2] = tested on: Common Cutworm (Spodoptera litura); test: Test Example 2: insecticidal effect on common cutworm, cabbage leaf immersion; settings: cabbage leaf immersed about 30 seconds, second-instar larvae, 25° C., eight days after the inoculation; for Test Example 2 (insecticidal effect, mortality criterion): 50 ppm
From the text: Insecticidal Effect on Common Cutworm (Spodoptera litura)
A piece of cabbage leaf (cultivar; Shikidori) was immersed for about 30 seconds in a liquid chemical prepared by diluting a preparation containing each compound listed in Tables 4 to 9 as an active ingredient to adjust the concentration to 50 ppm. After air-dryness, it was placed in a plastic Petri dish with a diameter of 9 cm and inoculated with second-instar larvae of common cutworm, after which the dish was closed and then allowed to stand in a room thermostatted at 25° C. Eight days after the inoculation, the dead and alive were counted. The mortality was calculated according to the following equation and the insecticidal effect was judged according to the criterion shown in Test Example 1. The test was carried out with triplicate groups of 10 insects.

[3] = tested on: Smaller Tea Tortrix (Adxophyes sp.); test: Test Example 3: insecticidal effect on smaller tea tortrix, tea leaf immersion; settings: 50 ppm, tea leaves immersed about 30 seconds, larvae, 25° C., humidity 70%, eight days after the inoculation
Experimental: Insecticidal Effect on Smaller Tea Tortrix (Adxophyes sp.)
Tea leaves were immersed for about 30 seconds in a liquid chemical prepared by diluting a preparation containing each compound listed in Tables 1 to 3 as an active ingredient to adjust the concentration to 50 ppm. After air-dryness, the tea leaves were placed in a plastic Petri dish with a diameter of 9 cm and inoculated with larvae of smaller tea tortrix, after which the dish was allowed to stand in a room thermostatted at 25° C. and having a humidity of 70%. Eight days after the inoculation, the dead and alive were counted and the insecticidal effect was judged according to the criterion shown in Test Example 1. The test was carried out with triplicate groups of 10 insects.

Row | Structure (SMILES) | Test Example 1 (insecticidal effect, mortality criterion) [1] | Test Example 2 (insecticidal effect, mortality criterion) [2] | Test Example 3 (insecticidal effect, mortality criterion) [3] | mortality at 50 ppm ([1]; Plutella xylostella, 144 h, read-out: Test Example 1 (insecticidal effect, mortality criterion)) [%] | mortality at 50 ppm ([2]; Spodoptera litura, 192 h, read-out: Test Example 2 (insecticidal effect, mortality criterion)) [%]
1 | C[S+]([O-])CC(C)(C)NC(=O)c1c(I)cccc1C(=O)Nc1ccc(C(C(F)(F)F)C(F)(F)F)cc1C#N (centres unmarked) [5-58] | A (Mortality 100%) | A (Mortality 100%) | A (Mortality 100%) | – | –
2 | CCc1cc(CC(F)(F)F)ccc1NC(=O)c1cccc(I)c1C(=O)NC(C)(C)CSC [Compound No. 5-2] | A (Mortality 100%) | A (Mortality 100%) | A (Mortality 100%) | – | –
3 | Cc1cc(C(C(F)(F)F)C(F)(F)F)ccc1NC(=O)c1cccc(I)c1C1=NC(C)(C[S+](C)[O-])CO1 (centres unmarked) [10-3] | A (Mortality 100%) | E (Mortality 49% or less) | E (Mortality 49% or less) | – | –
4 | CSCC(C)(C)NC(=O)c1c(I)cccc1C(=O)Nc1ccc(CC(F)(F)C(F)(F)C(F)(F)C(F)(F)C(F)(F)F)cc1CC(F)(F)C(F)(F)C(F)(F)C(F)(F)C(F)(F)F [5-8] | A (Mortality 100%) | A (Mortality 100%) | A (Mortality 100%) | – | –
5 | CSCC(C)(C)NC(=O)c1c(Cl)cccc1C(=O)Nc1ccc(C(C(F)(F)F)C(F)(F)F)cc1C [5-19] | A (Mortality 100%) | A (Mortality 100%) | A (Mortality 100%) | – | –
6 | C#CC(C)(C)NC(=O)c1c(I)cccc1C(=O)Nc1ccc(C(C(F)(F)F)C(F)(F)F)cc1C [5-24] | A (Mortality 100%) | C (Mortality 89-80%) | A (Mortality 100%) | – | –
7 | CSCC(C)(C)NC(=O)c1c(C(=O)Nc2ccc(C(C(F)(F)F)C(F)(F)F)cc2C)cccc1C(F)(F)F [5-41] | A (Mortality 100%) | A (Mortality 100%) | A (Mortality 100%) | – | –
8 | CSCC(C)(C)NC(=O)c1ccccc1C(=O)Nc1ccc(C(C(F)(F)F)C(F)(F)F)cc1C [5-13] | A (Mortality 100%) | E (Mortality 49% or less) | E (Mortality 49% or less) | – | –
9 | Cc1cc(C(C(F)(F)F)C(F)(F)F)ccc1NC(=O)c1cccc(I)c1C1=NC(C)(C)CO1 [Compound No. 10-1, 3-iodo-2-(4,4-dimethyloxazolin-2-yl)-2′-methyl-4′-[2,2,2-trifluoro-1-(trifluoromethyl)ethyl]benzanilide] | – | – | E (Mortality 49% or less) | 100 | ≤ 49
10 | Cc1cc(C(C(F)(F)F)C(F)(F)F)ccc1NC(=O)c1cccc(I)c1C(=O)NC(C)COC(=O)NCc1ccccc1 (centres unmarked) [5-33] | A (Mortality 100%) | A (Mortality 100%) | A (Mortality 100%) | – | –
11 | CCOC(=O)C=CC(C)(C)NC(=O)c1c(I)cccc1C(=O)Nc1ccc(C(C(F)(F)F)C(F)(F)F)cc1C [5-25] | A (Mortality 100%) | A (Mortality 100%) | A (Mortality 100%) | – | –
12 | CC(C)NC(=O)c1c(I)cccc1C(=O)Nc1ccc(C(C(F)(F)F)C(F)(F)F)cc1 [5-9] | A (Mortality 100%) | A (Mortality 100%) | A (Mortality 100%) | – | –
13 | Cc1cc(C(C(F)(F)F)C(F)(F)F)ccc1NC(=O)c1cccc([N+](=O)[O-])c1C(=O)NC(C)C [5-14] | A (Mortality 100%) | A (Mortality 100%) | A (Mortality 100%) | – | –
14 | CC(C)(CS(C)(=O)=O)NC(=O)c1c(I)cccc1C(=O)Nc1ccc(C(C(F)(F)F)C(F)(F)F)nc1Cl [8-6] | A (Mortality 100%) | D (Mortality 79-50%) | A (Mortality 100%) | – | –
15 | Cc1cc(C(C(F)(F)F)C(F)(F)F)ccc1NC(=O)c1cccc(I)c1C(=O)NC(C)COC(=O)NCc1ccc(Cl)cc1 (centres unmarked) [5-37] | A (Mortality 100%) | A (Mortality 100%) | A (Mortality 100%) | – | –
16 | Cc1ccccc1CNC(=O)OCC(C)NC(=O)c1c(I)cccc1C(=O)Nc1ccc(C(C(F)(F)F)C(F)(F)F)cc1C (centres unmarked) [5-34] | A (Mortality 100%) | A (Mortality 100%) | A (Mortality 100%) | – | –
17 | CSCC(C)(C)NC(=O)c1c(C(=O)Nc2ccc(C(C(F)(F)F)C(F)(F)F)cc2C)cccc1[N+](=O)[O-] [5-15] | A (Mortality 100%) | A (Mortality 100%) | A (Mortality 100%) | – | –
18 | CSCC(C)(C)NC(=O)c1c(C(=O)Nc2ccc(C(C(F)(F)F)C(F)(F)F)nc2C)cccc1[N+](=O)[O-] [8-7] | A (Mortality 100%) | C (Mortality 89-80%) | E (Mortality 49% or less) | – | –
19 | CSCC(C)(C)NC(=O)c1c(C(=O)Nc2ccc(C(C(F)(F)F)C(F)(F)F)cc2C)ccc(Cl)c1Cl [5-45] | A (Mortality 100%) | A (Mortality 100%) | A (Mortality 100%) | – | –
20 | CSCC(C)(C)NC(=O)c1c(I)cccc1C(=O)Nc1ccc(C(C(F)(F)F)C(F)(F)F)cc1 [5-10] | A (Mortality 100%) | A (Mortality 100%) | A (Mortality 100%) | – | –
21 | Cc1cc(C(C(F)(F)F)C(F)(F)F)ccc1NC(=O)c1ccccc1C(=O)NC(C)C [5-11] | A (Mortality 100%) | E (Mortality 49% or less) | A (Mortality 100%) | – | –
22 | Cc1cc(C(C(F)(F)F)C(F)(F)F)ccc1NC(=O)c1cccc(Cl)c1C(=O)NC(C)C [5-17] | A (Mortality 100%) | A (Mortality 100%) | A (Mortality 100%) | – | –
23 | CSCC(C)(C)NC(=O)c1c(I)cccc1C(=O)Nc1ccc(CC(F)(F)C(F)(F)F)cc1C [5-5] | A (Mortality 100%) | A (Mortality 100%) | A (Mortality 100%) | – | –
24 | C[S+]([O-])CC(C)(C)NC(=O)c1c(I)cccc1C(=O)Nc1ccc(C(C(F)(F)F)C(F)(F)F)cc1Br (centres unmarked) [5-54] | A (Mortality 100%) | A (Mortality 100%) | A (Mortality 100%) | – | –
25 | CCNC(=O)OCC(C)NC(=O)c1c(I)cccc1C(=O)Nc1ccc(C(C(F)(F)F)C(F)(F)F)cc1C (centres unmarked) [5-32] | A (Mortality 100%) | A (Mortality 100%) | A (Mortality 100%) | – | –
26 | CC(C)(CS(C)(=O)=O)NC(=O)c1c(I)cccc1C(=O)Nc1ccc(C(C(F)(F)F)C(F)(F)F)cc1C#N [5-59] | A (Mortality 100%) | A (Mortality 100%) | A (Mortality 100%) | – | –
27 | CC(C)NC(=O)c1c(I)cccc1C(=O)Nc1ccc(C(C(F)(F)F)C(F)(F)F)cc1Cl [5-51] | A (Mortality 100%) | A (Mortality 100%) | A (Mortality 100%) | – | –
28 | Cc1cc(C(C(F)(F)F)C(F)(F)F)ccc1NC(=O)c1cccc(I)c1C(=O)NC(C)(C)CC(C)(C)C [5-23] | A (Mortality 100%) | – | A (Mortality 100%) | – | –
